Measured values published in patent US20100063092A1, “3-CYANO-4-(4-PHENYL-PIPERIDIN-1-YL)-PYRIDIN-2-ONE DERIVATIVES” (Ortho-Mcneil-Janssen Pharmaceuticals, Inc., priority 2007, published 2010).
Where two headings read alike, the source gives them in different places.

Legend:
[1] = target: T1, human mGluR2 (Homo sapiens, UniProt Q14416); test: [35S]GTPγS binding assay (PAM assay); type: biochemical
T1 construct: expressed in transfected cells; host or cells: CHO cells (membranes)
Text: The compounds provided in the present invention are positive allosteric modulators of mGluR2. These compounds appear to potentiate glutamate responses by binding to an allosteric site other than the glutamate binding site. The response of mGluR2 to a concentration of glutamate is increased when compounds of formula (I) are present. Compounds of formula (I) are expected to have their effect substantially at mGluR2 by virtue of their ability to enhance the function of the receptor. The behaviour of positive allosteric modulators tested at mGluR2 using the [^35S]GTPγS binding assay method described below and which is suitable for the identification of such compounds, and more particularly the compounds according to formula (I), are shown in Table 3.
The [^35S]GTPγS binding assay is a functional membrane-based assay used to study G-protein coupled receptor (GPCR) function whereby incorporation of a non-hydrolysable form of GTP, [^35S]GTPγS (guanosine 5′-triphosphate, labelled with […] ^35S), is measured. The G-protein […] catalyzes the exchange of guanosine 5′-diphosphate (GDP) by guanosine triphosphate (GTP) and on activation of the GPCR by an agonist, [^35S]GTPγS, becomes incorporated and cannot be cleaved to continue the exchange cycle (Harper (1998) Current Protocols in Pharmacology 2.6.1-10, John Wiley & Sons, Inc.). […] Here we describe the use of the [^35S]GTPγS binding assay using membranes from cells transfected with the human mGluR2 receptor and adapted from Schaffhauser et al ((2003) Molecular Pharmacology 4:798-810) for the detection of the positive allosteric modulation (PAM) properties of the compounds of this invention.
CHO-cells were cultured to pre-confluence and stimulated with 5 mM butyrate for 24 hours, prior to washing in PBS, and then collection by scraping in homogenisation buffer (50 mM Tris-HCl buffer, pH 7.4, 4° C.). Cell lysates were homogenized briefly (15s) using an ultra-turrax homogenizer. The homogenate was centrifuged at 23 500×g for 10 minutes and the supernatant discarded. The pellet was resuspended in 5 mM Tris-HCl, pH 7.4 and centrifuged again (30 000×g, 20 min, 4° C.). The final pellet was resuspended in 50 mM HEPES, pH 7.4 and stored at −80° C. in appropriate aliquots before use. Protein concentration was determined by the Bradford method (Bio-Rad, USA) with bovine serum albumin as standard.
Measurement of mGluR2 positive allosteric modulatory activity of test compounds in membranes containing human mGluR2 was performed using frozen membranes that were thawed and briefly homogenised prior to pre-incubation in 96-well microplates (15 μg/assay well, 30 minutes, 30° C.) in assay buffer (50 mM HEPES pH 7.4, 100 mM NaCl, 3 mM MgCl2, 50 μM GDP, 10 μg/ml saponin,) with increasing concentrations of positive allosteric modulator (from 0.3 nM to 50 μM) and either a minimal pre-determined concentration of glutamate (PAM assay), or no added glutamate. For the PAM assay, membranes were pre-incubated with glutamate at EC25 concentration, i.e. a concentration that gives 25% of the maximal response glutamate, and is in accordance to published data (Pin et al. (1999) Eur. J. Pharmacol. 375:277-294). After addition of [^35S]GTPγS (0.1 nM, f.c.) to achieve a total reaction volume of 200 μl, microplates were shaken briefly and further incubated to allow [^35S]GTPγS incorporation on activation (30 minutes, 30° C.). The reaction was stopped by rapid vacuum filtration over glass-fibre filter plates (Unifilter 96-well GF/B filter plates, Perkin-Elmer, Downers Grove, USA) microplate using a 96-well plate cell harvester (Filtermate, Perkin-Elmer, USA), and then by washing three times with 300 μl of ice-cold wash buffer (Na2PO4.2H20 10 mM, NaH2PO4.H20 10 mM, pH=7.4). Filters were then air-dried, and 40 μl of liquid scintillation cocktail (Microscint-O) was added to each well, and membrane-bound [^35S]GTPγS was measured in a 96-well scintillation plate reader (Top-Count, Perkin-Elmer, USA). […]

[2] = compounds of formula (I'), protocol of section D ([35S]GTPγS, human mGluR2, glutamate EC25), read-out: pEC50 (see section D for protocol) (converted)
[3] = membranes from CHO cells transfected with human mGluR2, in presence of glutamate at predetermined EC25 concentration, averages of duplicate values of 11-concentration response curves, read-out: GTPgS - hR2 PAM pEC50 (converted)

T1 sequence (Q14416 19-872): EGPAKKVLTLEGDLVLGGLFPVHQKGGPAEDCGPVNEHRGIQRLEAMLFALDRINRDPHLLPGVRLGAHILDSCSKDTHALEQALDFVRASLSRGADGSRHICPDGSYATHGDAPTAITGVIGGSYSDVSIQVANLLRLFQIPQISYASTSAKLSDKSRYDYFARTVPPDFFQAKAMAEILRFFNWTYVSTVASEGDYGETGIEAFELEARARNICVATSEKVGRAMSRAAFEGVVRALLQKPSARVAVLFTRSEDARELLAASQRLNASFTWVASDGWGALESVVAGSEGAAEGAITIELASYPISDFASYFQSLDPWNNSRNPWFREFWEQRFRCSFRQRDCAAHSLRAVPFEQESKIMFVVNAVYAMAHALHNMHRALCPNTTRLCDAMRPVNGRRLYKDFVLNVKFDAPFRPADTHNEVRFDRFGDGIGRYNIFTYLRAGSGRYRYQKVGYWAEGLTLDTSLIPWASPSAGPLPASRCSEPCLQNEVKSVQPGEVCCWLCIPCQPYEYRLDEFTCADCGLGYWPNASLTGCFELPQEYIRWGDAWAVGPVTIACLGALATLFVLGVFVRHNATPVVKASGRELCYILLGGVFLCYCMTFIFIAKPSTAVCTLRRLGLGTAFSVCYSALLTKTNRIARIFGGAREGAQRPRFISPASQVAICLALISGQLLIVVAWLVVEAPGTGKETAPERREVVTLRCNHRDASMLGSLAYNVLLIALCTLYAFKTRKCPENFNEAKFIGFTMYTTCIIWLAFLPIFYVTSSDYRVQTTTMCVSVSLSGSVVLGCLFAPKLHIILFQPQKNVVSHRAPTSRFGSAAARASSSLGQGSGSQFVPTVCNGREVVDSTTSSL

Row | EC50 [1, 2] [nM] | EC50 [1, 3] [nM] | melting point [°C] | Compound
1 | 200 |  |  | CCCCn1ccc(N2CCC(O)(c3cccc(Cl)c3)CC2)c(C#N)c1=O
2 | 100 |  |  | CCCCn1ccc(N2CCC(O)(c3ccc(Cl)cc3)CC2)c(C#N)c1=O
3 |  | 174 |  | CCCCn1ccc(N2CCC(F)(c3ccccc3)CC2)c(C#N)c1=O [Compound 2, 1′-Butyl-4-fluoro-2′-oxo-4-phenyl-3,4,5,6,1′,2′-hexahydro-2H-[1,4′]bipyridinyl-3′-carbonitrile]
4 |  | 2040 | 103.2 | CCCCn1ccc(N2CCC(CO)(c3ccccc3)CC2)c(C#N)c1=O [Compound 4, 1′-Butyl-4-hydroxymethyl-2′-oxo-4-phenyl-3,4,5,6,1′,2′-hexahydro-2H-[1,4′]bipyridinyl-3′-carbonitrile]
5 |  | 1200 |  | N#Cc1c(N2CCC(CF)(c3ccccc3)CC2)ccn(CC2CC2)c1=O [Compound 5, 1′-Cyclopropylmethyl-4-fluoromethyl-2′-oxo-4-phenyl-3,4,5,6,1′,2′-hexahydro-2H-[1,4′]bipyridinyl-3′-carbonitrile]
6 |  | 316 | 128 | N#Cc1c(N2CCC(c3ccccc3)CC2)ccn(CC2CC2)c1=O [Compound 8, 3-cyano-1-cyclopropylmethyl-4-(4-phenyl-piperidin-1-yl)-pyridine-2(1H)-one]

Continued, molecule first:

Row | Compound | EC50 [1, 2] [nM] | EC50 [1, 3] [nM] | melting point [°C]
7 | CCCCn1ccc(N2CCC(O)(c3ccc(F)cc3)CC2)c(C#N)c1=O | 398 |  | 
8 | N#Cc1c(N2CCC(O)(c3ccc(F)cc3)CC2)ccn(CC2CC2)c1=O | 501 |  | 
9 | N#Cc1c(N2CCC(O)(c3ccccc3)CC2)ccn(CC2CC2)c1=O | 1000 |  | 
10 | N#Cc1c(N2CCC(F)(c3ccccc3)CC2)ccn(CC2CC2)c1=O [Compound 1, 1′-Cyclopropylmethyl-4-fluoro-2′-oxo-4-phenyl-3,4,5,6,1′,2′-hexahydro-2H-[1,4′]bipyridinyl-3′-carbonitrile] |  | 263 | 189.2
11 | CCCCn1ccc(N2CCC(CF)(c3ccccc3)CC2)c(C#N)c1=O [Compound 6, 1′-Butyl-4-fluoromethyl-2′-oxo-4-phenyl-3,4,5,6,1′,2′-hexahydro-2H-[1,4′]bipyridinyl-3′-carbonitrile] |  | 447 | 
12 | CCCCn1ccc(N2CCC(OCCF)(c3ccccc3)CC2)c(C#N)c1=O [Compound 7, 1′-Butyl-4-fluoroethyloxy-2′-oxo-4-phenyl-3,4,5,6,1′,2′-hexahydro-2H-[1,4′]bipyridinyl-3′-carbonitrile] |  | 186 | 
